Experimental data published in ChEMBL document CHEMBL4406807, “Discovery of 3,4,6-Trisubstituted Piperidine Derivatives as Orally Active, Low hERG Blocking Akt Inhibitors via Conformational Restriction and Structure-Based Design” (J Med Chem, 2019).

Columns and labels:
HCT-116 = assay: cells; conditions: Homo sapiens, HCT-116, 72 h
OVCAR-8 = assay: Antiproliferative activity against human OVCAR8 cells; assay type: functional, cell-based
[1] = target: RAC-alpha serine/threonine-protein kinase (Homo sapiens, UniProt P31749)
Description: Inhibition of human Akt1 expressed in Escherichia coli using STK Substrate 2-biotin as substrate incubated for 1 hr by HTRF assay

LNCaP = assay: Antiproliferative activity against human LNCAP cells; assay type: functional, cell-based
hERG (KCNH2) = hERG (KCNH2) (Homo sapiens, UniProt Q12809); assay: Inhibition of ERG in human HEK293 cells at 3 uM at -80 mV holding potential by whole-cell patch clamp assay relative to control; assay type: cell-based; conditions: HEK293 cells expressing ERG
hERG (KCNH2), sequence (Q12809 whole entry): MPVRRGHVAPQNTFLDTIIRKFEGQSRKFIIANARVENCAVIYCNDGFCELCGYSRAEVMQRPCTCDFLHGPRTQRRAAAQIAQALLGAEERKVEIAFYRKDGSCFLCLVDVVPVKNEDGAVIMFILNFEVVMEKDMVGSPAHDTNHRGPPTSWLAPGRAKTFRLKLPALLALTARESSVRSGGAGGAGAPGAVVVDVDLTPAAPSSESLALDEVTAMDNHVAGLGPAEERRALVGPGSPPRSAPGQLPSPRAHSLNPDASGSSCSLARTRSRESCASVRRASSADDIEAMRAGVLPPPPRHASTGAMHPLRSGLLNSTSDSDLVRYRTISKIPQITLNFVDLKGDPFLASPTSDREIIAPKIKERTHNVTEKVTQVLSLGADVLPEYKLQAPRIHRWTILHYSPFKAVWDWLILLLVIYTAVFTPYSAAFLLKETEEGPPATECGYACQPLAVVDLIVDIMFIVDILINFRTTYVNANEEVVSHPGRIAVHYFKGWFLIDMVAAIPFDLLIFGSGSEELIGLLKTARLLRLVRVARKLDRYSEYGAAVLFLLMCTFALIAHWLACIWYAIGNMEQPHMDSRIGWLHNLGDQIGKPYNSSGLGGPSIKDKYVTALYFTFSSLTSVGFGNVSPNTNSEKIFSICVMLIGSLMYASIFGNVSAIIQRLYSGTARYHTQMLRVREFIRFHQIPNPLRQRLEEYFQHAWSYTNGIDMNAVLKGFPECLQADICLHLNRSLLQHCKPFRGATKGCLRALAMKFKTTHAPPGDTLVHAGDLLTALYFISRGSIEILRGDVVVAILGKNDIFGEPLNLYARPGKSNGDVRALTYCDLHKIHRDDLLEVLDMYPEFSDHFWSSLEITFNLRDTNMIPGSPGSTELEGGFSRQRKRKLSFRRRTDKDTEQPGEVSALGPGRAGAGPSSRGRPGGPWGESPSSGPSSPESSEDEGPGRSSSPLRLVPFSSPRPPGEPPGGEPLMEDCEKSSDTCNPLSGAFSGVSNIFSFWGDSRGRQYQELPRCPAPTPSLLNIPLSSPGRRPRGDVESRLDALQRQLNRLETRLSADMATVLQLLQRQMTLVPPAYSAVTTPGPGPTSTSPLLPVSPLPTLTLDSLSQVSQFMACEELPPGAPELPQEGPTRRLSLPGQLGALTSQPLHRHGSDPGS

RAC-alpha serine/threonine-protein kinase, sequence (P31749 whole entry): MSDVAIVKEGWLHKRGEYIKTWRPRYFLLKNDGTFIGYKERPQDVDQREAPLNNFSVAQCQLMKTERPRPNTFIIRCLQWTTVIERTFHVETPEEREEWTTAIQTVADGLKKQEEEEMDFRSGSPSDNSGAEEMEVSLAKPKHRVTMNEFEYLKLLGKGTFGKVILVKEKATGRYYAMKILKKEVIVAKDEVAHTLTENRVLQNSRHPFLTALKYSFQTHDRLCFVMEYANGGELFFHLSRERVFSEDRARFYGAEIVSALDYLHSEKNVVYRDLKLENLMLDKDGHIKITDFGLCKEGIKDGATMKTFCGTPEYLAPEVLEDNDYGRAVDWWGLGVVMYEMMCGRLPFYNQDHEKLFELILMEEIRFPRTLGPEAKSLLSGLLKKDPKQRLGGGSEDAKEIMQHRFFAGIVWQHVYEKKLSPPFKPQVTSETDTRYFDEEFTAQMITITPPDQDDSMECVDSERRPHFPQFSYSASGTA

| Compound | IC50 (HCT-116) | IC50 (OVCAR-8) | IC50 [1] | IC50 (LNCaP) | inhibition at 3 µM (hERG (KCNH2)) |
| --- | --- | --- | --- | --- | --- |
| Cn1ncc(Cl)c1-c1cc(C(=O)N[C@@H]2CN[C@H](CC(=O)NC3CCC3)C[C@H]2c2ccc(Cl)c(Cl)c2)oc1Cl | 430 nM | 610 nM | 7.98 nM | 80 nM |  |
| Cn1ncc(Cl)c1-c1ccc(C(=O)N[C@@H]2CNCC[C@H]2c2ccc(Cl)cc2)o1 | 2560 nM | 4280 nM | 13.7 nM |  |  |
| Cn1ncc(Cl)c1-c1cc(C(=O)N[C@@H]2CN[C@H](CCN3CCOCC3)C[C@H]2c2ccc(Cl)c(Cl)c2)oc1Cl | 1560 nM | 1760 nM | 8.78 nM | 410 nM | 82.3% |
| Cn1ncc(Br)c1-c1ccc(C(=O)N[C@@H]2CNCC[C@H]2c2ccc(F)c(F)c2)cn1 | 26900 nM | 6150 nM | 270 nM |  |  |
| Cn1ncc(Cl)c1-c1cc(C(=O)N[C@@H]2CN[C@H](CC(N)=O)C[C@H]2c2ccc(Cl)c(Cl)c2)oc1Cl | 650 nM | 1000 nM | 3.24 nM | 160 nM | 15.7% |
| Cn1ncc(Cl)c1-c1cc(C(=O)N[C@@H]2CN[C@H](CCCO)C[C@H]2c2ccc(Cl)c(Cl)c2)oc1Cl | 510 nM | 600 nM | 2.56 nM | 210 nM | 72% |
| Cn1ncc(Br)c1-c1cc(C(=O)N[C@@H]2CNCC[C@H]2c2ccc(Cl)cc2)n(C)c1Br | 7420 nM | 4920 nM | 199 nM |  |  |
| Cn1ncc(Cl)c1-c1cc(C(=O)N[C@@H]2CN[C@H](CCNS(C)(=O)=O)C[C@H]2c2ccc(F)c(F)c2)oc1Cl | 920 nM | 1530 nM | 3.29 nM | 50 nM | 8% |
| Cn1cc(-c2coc(C(=O)N[C@@H]3CNCC[C@H]3c3ccc(Cl)cc3)c2)cn1 | 23600 nM | 10000 nM | > 1000 nM |  |  |
| Cn1ncc(Br)c1-c1ccc(C(=O)N[C@@H]2CNCC[C@H]2c2ccc(Cl)cc2)o1 | 3760 nM | 3680 nM | 31.2 nM |  |  |
| Cn1ncc(Br)c1-c1ccc(C(=O)N[C@@H]2CNCC[C@H]2c2cccc(F)c2)nc1 | 6250 nM | 1920 nM | 182 nM |  |  |
| Cn1ncc(Cl)c1-c1cc(C(=O)N[C@@H]2CNCC[C@@H]2c2ccc(F)c(F)c2)oc1Cl |  |  | 2.5 nM |  |  |
| Cn1nccc1-c1coc(C(=O)NC2CNCCC2c2ccc(F)c(F)c2)c1 (racemic) |  |  | 191 nM |  |  |
| Cn1nccc1-c1ccc(C(=O)N[C@@H]2CNCC[C@H]2c2cccc(F)c2)nc1 | 5630 nM | 7400 nM | 76.6 nM |  |  |
| Cn1ncc(Br)c1-c1coc(C(=O)NC2CNCC2c2ccc(F)c(F)c2)c1 (racemic) |  |  | 3650 nM |  |  |
| C=CC[C@@H]1C[C@@H](c2ccc(Cl)c(Cl)c2)[C@H](NC(=O)c2cc(-c3c(Cl)cnn3C)c(Cl)o2)CN1 | 780 nM | 990 nM | 12.4 nM | 160 nM |  |
| Cn1ncc(Cl)c1-c1cc(C(=O)NC2CNCCC2c2ccc(C(F)(F)F)cc2)oc1Cl (stereo not given) |  |  | 7.2 nM |  |  |
| Cn1ncc(Cl)c1-c1cc(C(=O)N[C@@H]2CNCC[C@H]2c2ccc(Cl)cc2)n(C)c1Cl | 7330 nM | 12400 nM | 149 nM |  |  |
| O=C(N[C@@H]1CNCC[C@H]1c1ccc(Cl)cc1)c1ccc(-c2cn[nH]c2)o1 | 21800 nM | 5000 nM | 50.3 nM |  |  |
| Cn1ncc(Cl)c1-c1ccc(C(=O)N[C@@H]2CNCC[C@H]2c2ccc(F)c(F)c2)cn1 | 34700 nM | 6120 nM | 215 nM |  |  |

| Compound | IC50 (HCT-116) | IC50 (OVCAR-8) | IC50 [1] | IC50 (LNCaP) | inhibition at 3 µM (hERG (KCNH2)) |
| --- | --- | --- | --- | --- | --- |
| CCC[C@@H]1C[C@@H](c2ccc(Cl)c(Cl)c2)[C@H](NC(=O)c2cc(-c3c(Cl)cnn3C)c(Cl)o2)CN1 | 1020 nM | 1620 nM | 10.4 nM |  | 85.3% |
| Cn1ncc(Br)c1-c1coc(C(=O)N[C@@H]2CNCC[C@H]2c2ccc(Cl)cc2)c1 | 2310 nM | 9010 nM | 35.6 nM |  |  |
| Cn1ncc(Cl)c1-c1cc(C(=O)N[C@@H]2CNCC[C@H]2c2ccc(F)c(F)c2)sc1Cl | 2810 nM | 3510 nM | 222 nM |  |  |
| Cn1ncc(Cl)c1-c1cc(C(=O)NC2CNCC2c2ccc(C(F)(F)F)cc2)oc1Cl (stereo not given) |  |  | 538 nM |  |  |
| Cn1ncc(Cl)c1-c1coc(C(=O)NC2CNCC2c2ccc(F)c(F)c2)c1 (racemic) |  |  | 1570 nM |  |  |
| Cn1ncc(Cl)c1-c1cc(C(=O)N[C@@H]2CNCC[C@H]2c2ccc(Cl)c(C(F)(F)F)c2)sc1Cl | 1750 nM | 1150 nM | 322 nM |  |  |
| CNc1cc(-c2ccc(C(=O)N[C@@H]3CNCC[C@H]3c3ccc(Cl)cc3)o2)ncn1 | 37100 nM | 12300 nM | 529 nM |  |  |
| Cn1ncc(Cl)c1-c1ccc(C(=O)N[C@@H]2CNCC[C@H]2c2cccc(F)c2)cc1 |  | 5820 nM | 72.3 nM |  | 10.7% |
| Cn1ncc(Cl)c1-c1cc(C(=O)N[C@@H]2CNCC[C@H]2c2ccc(Cl)cc2)oc1Cl | 1870 nM | 1320 nM | 17.3 nM |  |  |
| Cn1ncc(Cl)c1-c1cc(C(=O)N[C@@H]2CNCC[C@H]2c2cccc(C(F)(F)F)c2)oc1Cl | 390 nM | 120 nM | 8 nM |  |  |
| COCC[C@@H]1C[C@@H](c2ccc(Cl)c(Cl)c2)[C@H](NC(=O)c2cc(-c3c(Cl)cnn3C)c(Cl)o2)CN1 | 470 nM | 1060 nM | 7.01 nM | 250 nM |  |
| NC1(C(=O)N[C@@H](CCO)c2ccc(Cl)cc2)CCN(c2nc[nH]c3nccc2-3)CC1 [CAPIVASERTIB] | 5200 nM |  |  | 178 nM |  |
| Cn1ncc(Cl)c1-c1cc(C(=O)N[C@@H]2CNCC[C@H]2c2cccc(F)c2)sc1Cl | 9430 nM | 8990 nM | 102 nM |  |  |
| Cn1ncc(Cl)c1-c1cc(C(=O)N[C@@H]2CN[C@H](CC(=O)NCC(O)CO)C[C@H]2c2ccc(Cl)c(Cl)c2)oc1Cl (stereo not given in full) | 7090 nM | 5900 nM | 3.13 nM | 660 nM |  |
| CC(=O)OCC[C@@H]1C[C@@H](c2ccc(F)c(F)c2)[C@H](NC(=O)c2cc(-c3c(Cl)cnn3C)c(Cl)o2)CN1 | 690 nM | 4960 nM | 3.4 nM |  |  |
| Cn1ncc(Cl)c1-c1cc(C(=O)N[C@H]2CNCC[C@@H]2c2ccc(F)c(F)c2)oc1Cl | 1090 nM | 490 nM | 51.2 nM |  |  |
| Cn1ncc(Cl)c1-c1cc(C(=O)N[C@H]2CNCC[C@@H]2c2ccc(C(F)(F)F)cc2)oc1Cl | 1050 nM | 900 nM | 127 nM |  |  |
| Cn1ncc(Br)c1-c1oc(C(=O)N[C@@H]2CNCC[C@H]2c2ccc(Cl)cc2)cc1Br | 10800 nM | 4540 nM | 29.8 nM |  |  |
| Cn1ncc(Cl)c1-c1cc(C(=O)NC2CNCCC2c2ccc(Cl)cc2)oc1Cl (stereo not given) |  |  | 17.3 nM |  |  |
| Cn1nccc1-c1ccc(C(=O)N[C@@H]2CNCC[C@H]2c2ccc(F)c(F)c2)cc1 | 3720 nM | 5330 nM | 21.6 nM |  | 25% |

| Compound | IC50 (HCT-116) | IC50 (OVCAR-8) | IC50 [1] | IC50 (LNCaP) | inhibition at 3 µM (hERG (KCNH2)) |
| --- | --- | --- | --- | --- | --- |
| Cn1nccc1-c1oc(C(=O)N[C@@H]2CNCC[C@H]2c2ccc(Cl)cc2)cc1Br | 13700 nM | 15000 nM | 162 nM |  |  |
| Cn1nccc1-c1coc(C(=O)N[C@@H]2CNCC[C@H]2c2ccc(Cl)cc2)c1 | 1560 nM | 3500 nM | 29.4 nM |  |  |
| Cn1cc(-c2ccc(C(=O)N[C@@H]3CNCC[C@H]3c3ccc(Cl)cc3)o2)cn1 | 15100 nM | 4410 nM | > 1000 nM |  |  |
| O=C(N[C@@H]1CNCC[C@H]1c1ccc(Cl)cc1)c1ccc(-c2ncnc3c2CCC3O)s1 (stereo not given in full) | 23000 nM | 24000 nM | > 1000 nM |  |  |
| Cn1nccc1-c1csc(C(=O)N[C@@H]2CNCC[C@H]2c2ccc(Cl)cc2)c1 | 8510 nM | 12600 nM | 188 nM |  |  |
| Cn1ncc(Cl)c1-c1cc(C(=O)NC2CNCCC2c2ccccc2)oc1Cl (stereo not given) |  |  | 17.6 nM |  |  |
| Cn1ncc(Cl)c1-c1cc(C(=O)N[C@@H]2CNCC[C@H]2c2ccc(Cl)cc2)sc1Cl | 2440 nM | 2510 nM | 449 nM |  |  |
| Cn1ncc(Cl)c1-c1cc(C(=O)N[C@@H]2CN[C@H](CCN3CCCC3)C[C@H]2c2ccc(Cl)c(Cl)c2)oc1Cl | 1940 nM | 1840 nM | 6.41 nM | 1920 nM |  |
| Cn1nccc1-c1ccc(C(=O)N[C@@H]2CNCC[C@H]2c2ccc(Cl)cc2)o1 | 9560 nM | 6090 nM | 230 nM |  |  |
| Cn1ncc(Cl)c1-c1oc(C(=O)N[C@@H]2CNCC[C@H]2c2ccc(Cl)cc2)cc1Br | 11700 nM | 6050 nM | 40 nM |  |  |
| Cn1nccc1-c1coc(C(=O)NC2CNCCC2c2ccccc2)c1 (stereo not given) |  |  | 710 nM |  |  |
| Cn1cc(-c2c(Br)cnn2C)cc1C(=O)N[C@@H]1CNCC[C@H]1c1ccc(Cl)cc1 | 8700 nM | 3030 nM | 255 nM |  | 63.8% |
| Cn1cc(-c2c(Cl)cnn2C)cc1C(=O)N[C@@H]1CNCC[C@H]1c1ccc(Cl)cc1 | 3040 nM | 6200 nM | 212 nM |  |  |
| Cn1ncc(Cl)c1-c1cc(C(=O)N[C@@H]2CNCC[C@H]2c2ccc(C(F)(F)F)cc2)oc1Cl | 280 nM | 120 nM | 9.3 nM |  |  |
| Cn1ncc(Cl)c1-c1coc(C(=O)N[C@@H]2CNCC[C@H]2c2ccc(F)c(F)c2)c1 | 990 nM | 1400 nM | 5.1 nM |  |  |
| Cn1ncc(Br)c1-c1ccc(C(=O)N[C@@H]2CNCC[C@H]2c2ccc(F)c(F)c2)cc1 | 22200 nM | 2900 nM | 73.5 nM |  |  |
| Cn1ncc(Cl)c1-c1ccc(C(=O)N[C@@H]2CNCC[C@H]2c2ccc(F)c(F)c2)cc1 | 9880 nM | 2180 nM | 27.3 nM |  |  |
| Cn1ncc(Cl)c1-c1cc(C(=O)NC2CNCCC2c2ccc(F)c(F)c2)oc1Cl (racemic) |  |  | 6.4 nM |  |  |
| Cn1nccc1-c1ccc(C(=O)N[C@@H]2CNCC[C@H]2c2ccc(F)c(F)c2)cn1 | 24200 nM | 2110 nM | 57.7 nM |  |  |
| Cn1ncc(Cl)c1-c1ccc(C(=O)N[C@@H]2CNCC[C@H]2c2cccc(F)c2)nc1 | 4720 nM | 3460 nM | 104 nM |  |  |
